Experimental data: patent US7115741B2, “4-thieno[2,3-D]pyrimidin-4-YL piperazine compounds” (priority 2001, dated 2006)

System: platelet ADP receptors
Assay: ARB binding assay (platelet ADP receptor binding, [3H]2-MeS-ADP)
Design: species or system human
Details: relative activities of selected compounds in the ARB binding assay
Experimental: Utilizing the second assay the potency of inhibition of such compounds with respect to [^3H]2-MeS-ADP binding to whole platelets is determined. [^3H]2-MeS-ADP binding experiments are routinely performed with outdated human platelets collected by standard procedures at hospital blood banks. Apyrase-washed outdated platelets are prepared as follows (all steps at room temperature, if not indicated otherwise):
Outdated platelet suspensions are diluted with 1 volume of CGS and platelets pelleted by centrifugation at 1900×g for 45 minutes. Platelet pellets are resuspended at 3–6×10^9 platelets/ml in CGS containing 1 U/ml apyrase (grade V, Sigma, St. Louis, Mo.) and incubated for 15 minutes at 37° C. After centrifugation at 730×g for 20 minutes, pellets are resuspended in Hepes-Tyrode's buffer containing 0.1% BSA (Sigma, St. Louis, Mo.) at a concentration of 6.66×10^8 platelets/ml. Binding experiments are performed after >45 minutes resting of the platelets.
Alternatively, binding experiments are performed with fresh human platelets prepared as described in I.(Inhibition of ADP-Mediated Platelet Aggregation in vitro), except that platelets are resuspended in Hepes-Tyrode's buffer containing 0.1% BSA (Sigma, St. Louis, Mo.) at a concentration of 6.66×10^8 platelets/ml. Very similar results are obtained with fresh and outdated platelets.
A platelet ADP receptor binding assay using the tritiated potent agonist ligand [^3H]2-MeS-ADP (Jantzen, H. M. et al. (1999) Thromb. Hemost. 81:111–117) has been adapted to the 96-well microtiter format. In an assay volume of 0.2 ml Hepes-Tyrode's buffer with 0.1% BSA and 0.6% DMSO, 1×10^8 apyrase-washed platelets are preincubated in 96-well flat bottom microtiter plates for 5 minutes with serial dilutions of test compounds before addition of 1 nM [^3H]2-MeS-ADP ([^3H]2-methylthioadenosine-5′-diphosphate, ammonium salt; specific activity 48–49 Ci/mmole, obtained by custom synthesis from Amersham Life Science, Inc., Arlington Heights, Ill., or NEN Life Science Products, Boston, Mass.). Total binding is determined in the absence of test compounds. Samples for nonspecific binding may contain 10^−5 M unlabelled 2-MeS-ADP (RBI, Natick, Mass.). After incubation for 15 minutes at room temperature, unbound radioligand is separated by rapid filtration and two washes with cold (4–8° C.) Binding Wash Buffer (10 mM Hepes pH 7.4, 138 mM NaCl) using a 96-well cell harvester (Minidisc 96, Skatron Instruments, Sterling, Va.) and 8×12 GF/C glassfiber filtermats (Printed Filtermat A, for 1450 Microbeta, Wallac Inc., Gaithersburg, Md.). The platelet-bound radioactivity on the filtermats is determined in a scintillation counter (Microbeta 1450, Wallac Inc., Gaithersburg, Md.). Specific binding is determined by subtraction of non-specific binding from total binding, and specific binding in the presence of test compounds is expressed as % of specific binding in the absence of test compounds dilutions.

SMILES | Relative Activity
CCc1cc2c(N3CCN(C(=O)/C=C/c4ccsc4)CC3)ncnc2s1 [Example 320, 1-[4-(6-Ethyl-thieno[2,3-d]pyrimidin-4-yl)-piperazin-1-yl]-3-thiophen-3-yl-propenone] | + (>20 micromolar)
CCc1cc2c(N3CCN(C(=O)C#Cc4ccccc4)CC3)ncnc2s1 [Example 332, 1-[4-(6-Ethyl-thieno[2,3-d]pyrimidin-4-yl)-piperazin-1-yl]-3-phenyl-propynone] | ++ (10–20 micromolar)
CCc1cc2c(N3CCN(C(=O)c4snnc4-c4ccccc4)CC3)ncnc2s1 [Example 348, [4-(6-Ethyl-thieno[2,3-d]pyrimidin-4-yl)-piperazin-1-yl]-(4-phenyl-[1,2,3]-thiadiazol-5-yl)-methanone] | + (>20 micromolar)
CCc1cc2c(N3CCN(C(=O)[C@H](C)c4ccccc4)CC3)ncnc2s1 [Example 349, 1-[4-(6-Ethyl-thieno[2,3-d]pyrimidin-4-yl)-piperazin-1-yl]-2-phenyl-propan-1-one] | + (>20 micromolar)
CCc1cc2c(N3CCN(C(=O)c4ccncc4)CC3)ncnc2s1 [Example 362, [4-(6-Ethyl-thieno[2,3-d]pyrimidin-4-yl)-piperazin-1-yl]-pyridin-4-yl-methanone] | + (>20 micromolar)
CCc1cc2c(N3CCN(C(=O)CCCn4nnc5ccccc54)CC3)ncnc2s1 [Example 372, 4-Benzotriazol-1-yl-1-[4-(6-Ethyl-thieno[2,3-d]pyrimidin-4-yl)-piperazin-1-yl]-butan-1-one] | ++ (10–20 micromolar)
CCc1cc2c(N3CCN(C(=O)CCC(=O)OC)CC3)ncnc2s1 [Example 384, 4-[4-(6-Ethyl-thieno[2,3-d]pyrimidin-4-yl)-piperazin-1-yl]-4-oxo-butyric acid methyl ester] | + (>20 micromolar)
CCc1cc2c(N3CCN(C(=O)CCCC(=O)O)CC3)ncnc2s1 [Example 390, 5-[4-(6-Ethyl-thieno[2,3-d]pyrimidin-4-yl)-piperazin-1-yl]-5-oxo-pentanoic acid] | + (>20 micromolar)
CCc1cc2c(N3CCN(C(=O)CCCCC#N)CC3)ncnc2s1 [Example 395, 6-[4-(6-Ethyl-thieno[2,3-d]pyrimidin-4-yl)-piperazin-1-yl]-6-oxo-hexanenitrile] | + (>20 micromolar)
CCc1cc2c(N3CCN(C(=O)c4ccc(-c5ccccc5)s4)CC3)ncnc2s1 [Example 408, [4-(6-Ethyl-thieno[2,3-d]pyrimidin-4-yl)-piperazin-1-yl]-(5-phenyl-thiophen-2-yl)-methanone] | ++ (10–20 micromolar)
CCc1cc2c(N3CCN(C(=O)CCCSc4nccn4-c4ccccc4)CC3)ncnc2s1 [Example 429, 1-[4-(6-Ethyl-thieno[2,3-d]pyrimidin-4-yl)-piperazin-1-yl]-4-(1-phenyl-1H-imidazol-2-ylsulfanyl)-butan-1-one] | + (>20 micromolar)
CCc1cc2c(N3CCN(C(=O)CCCNc4ncccn4)CC3)ncnc2s1 [Example 430, 1-[4-(6-Ethyl-thieno[2,3-d]pyrimidin-4-yl)-piperazin-1-yl]-4-(pyrimidin-2-ylamino)-butan-1-one] | + (>20 micromolar)
CCc1cc2c(N3CCN(C(=O)C(c4ccccc4)N4CCNCC4)CC3)ncnc2s1 (centres unmarked) [Example 432, 1-[4-(6-Ethyl-thieno[2,3-d]pyrimidin-4-yl)-piperazin-1-yl]-2-phenyl-2-piperazin-1-yl-ethanone] | + (>20 micromolar)
CCc1cc2c(N3CCN(C(=O)c4ccc5ccccc5n4)CC3)ncnc2s1 [Example 453, [4-(6-Ethyl-thieno[2,3-d]pyrimidin-4-yl)-piperazin-1-yl]-quinolin-2-yl-methanone] | + (>20 micromolar)
